According to US20090221683A1, “Combination of CXCR4 Antagonist and Morphogen to Increase Angiogenesis” (Caritas St.Elizabeth Medical Center of Boston, Inc, priority 2005, published 2009):
Read-outs that look alike come from different tables or passages of the source.

Key:
[1] = system: left ventricle fibrosis; conditions: two weeks after AMI
Method: (§1) The explanted hearts of sacrificed mice were sliced in a bread-loaf fashion into transverse sections from apex to base (base-, mid-, and apex-portions) and fixed with 4% paraformaldehyde. Tissues were embedded in paraffin and sectioned for elastic tissue/trichrome staining and immunohistochemistry using the murine-specific EC marker Bandeiraea simplicifolia lectin I (Isolectin B4) (Vector laboratories).
(§2) Capillary density was assessed by histological examination of five randomly selected fields of tissue sections from segments of the left ventricular myocardium served by the occluded LAD. Capillaries were recognized as tubular structures positive for isolectin B4. Elastic tissue/trichrome-stained tissues from the mice four weeks after MI were used to measure the average ratio of the external circumference of fibrosis area to LV area.

[2] = system: left ventricular myocardium border zone capillaries; conditions: two weeks after AMI
Method: as §1, §2

[3] = system: circulating EPC; conditions: 2 hour after treatment; 240 μg/kg SC
Method: (§3) Methods: Using wild-type rats, MI was induced by ligation of the left anterior descending artery. […] 4 weeks after treatment, echocardiography, hemodynamic measurement and histological examination were performed.

[4] = system: peripheral blood MNCs and EPCs
Method: (§4) Peripheral blood mononuclear cells (PBMNCs) were isolated from 500 μl of peripheral blood obtained from each mouse. PBMNCs were cultured in EBM media (Clonetics, San Diego, Calif.) supplemented with 5% fetal bovine serum (FBS), antibiotics, and growth factors (EPC medium) on four 4-well glass slides coated with rat plasma vitronectin (Sigma) in 0.5% gelatin solution. Four days after culture, EPCs, recognized as attaching spindle-shaped cells, were assayed by co-staining with acetylated LDL (acLDL)-DiI (Biomedical Technologies, Stoughton, Mass.) and Bandeiraea simplicifolia (BS-1) lectin I (Vector Laboratories, Burlingame, Calif.), characteristics indicators of endothelial lineage, and conjugated with FITC (Sigma). Fluorescent microscopy identified double-positive cells as […] The numbers of double-positive cells per sample, measured in fifteen fields under 20× magnification, was were counted per sample in a blinded manner.
(§5) Such methods can be used for study of the compositions and methods of the instant invention.

[5] = system: border zone between scar and normal tissue capillaries; test: Chronic MI rats: capillary density in the border zone; assay type: in vivo, rat; conditions: 4 weeks after treatment
Method: as §3

[6] = system: bone marrow derived EPCs (X-gal positive cells); conditions: Tie2-LacZ/BMT mice
From the text: as §5, §5

[7] = system: FVB mice with myocardial infarction; conditions: for FS (fractional shortening) / LVDd (left ventricular diastolic dimension) / LVDs (left ventricular systolic dimension) / LV + dP/dt / LV − dP/dt / LVEDP (left ventricular end-diastolic pressure) / LVSP (left ventricular systolic pressure): mean ± SE
Method: (§6) Eight-week old male FVB mice were anesthetized with sodium pentobarbital (50 mg/kg IP). The animals were intubated orally with a 22G IV catheter and artificially ventilated with a respirator (Harvard Apparatus). A left intercostal thoracotomy was performed and the ribs were retracted with 5-0 polypropylene sutures. After the pericardium was opened, the left anterior descending (LAD) branch of the left coronary artery was ligated proximal to the bifurcation between the LAD and the diagonal branch using 8-0 polypropylene sutures and visualized with a dissecting microscope. Positive end-expiratory pressure was applied to fully inflate the lungs, and the chest was closed with 7-0 polypropylene sutures. […] After physiological assessment at one, two and four weeks after MI, a subgroup of the mice were euthanized by intravenous administration of a lethal dose of pentobarbital.
Transthoracic echocardiography (SONOS 5500, Hewlett Packard) was performed just before MI and one, two and four weeks after MI. Left ventricular diastolic (LVDd) and systolic (LVDs) dimensions and fractional shortening were measured at the mid-papillary muscle level. Hemodynamic measurements were obtained at two and four weeks after MI using a 1.0-French high-fidelity pressure catheter (Millar Instruments, Houston, Tex.) via the left carotid artery. LV systolic pressure and maximal positive (+dP/dt) and negative (−dP/dt) pressure development were recorded after stabilization of LV function and heart rate. Such methods can be used for study of the compositions and methods of the instant invention.

[8] = system: mice with AMI
Method: as §6
All values were expressed as mean±the standard error of the mean. […] Overall survival of all the mice was assessed by Kaplan-Meier analysis. Survival in individual experimental groups was also analyzed by Fisher's extract probability test. A p value of less than 0.05 was considered statistically significant.

[9] = system: peripheral blood EPCs
Method: as §4
At each time point after the induction of MI, mononuclear cells were isolated from peripheral blood and total BM cells that had been obtained by flushing the tibias and femurs. EPCs were counted by culturing as described in Example 1, and stained with both acLDL-DiI and BS-1 lectin. Double positive cells were counted in 15 fields under objective 20× magnification per sample in a blinded manner.

[10] = system: MMP-9 mRNA; conditions: one week after MI; RT-PCR
Method: (§7) RNA was extracted from mononuclear cells isolated from bone marrow using TRIzol reagent (Invitrogen) according to the manufacture's instruction. Reverse transcriptase-polymerase chain reaction (RT-PCR) of the MMP-9 and GAPDH genes was performed using 1 pg of total RNA. PCR was performed for 25 cycles for both MMP-9 and GAPDH; each cycle maintained 94° C. for 30 seconds and 64° C. for three minutes. Amplification was carried out in 20-μl reaction mixtures containing 0.4 U Taq polymerase.

[11] = system: MMP-2 mRNA; conditions: one week after MI; RT-PCR
Method: as §7

[12] = system: peripheral blood EPCs (Sca-1/Flk-1 positive); conditions: one week after MI
Method: (§8) Fluorescence-activated cell sorting (FACS) was used to identify EPCs from mononuclear cells isolated both from peripheral blood and bone marrow. The viable mononuclear cell population was analyzed for the expression of Sca-1-FITC (Pharmingen) and Flk-1 (Santa Cruz) conjugated with the corresponding phycoerythrin-labeled secondary antibody (Sigma). Isotype-identical antibodies served as negative controls. Immunofluorescence-labeled cells were fixed with 2% paraformaldehyde and analyzed by quantitative flow cytometry using a FACStar flow cytometer (Becton Dickinson) and Cell Quest Software that counted 10,000 events per sample.

[13] = system: bone marrow EPCs (Sca-1/Flk-1 positive); conditions: one week after MI
Method: as §8

[14] = system: bone marrow EPCs (Sca-1/Flk-1 positive) of MMP-9-/- mice; conditions: 1 week after MI
From the text: MMP-9 expression was disrupted by deleting of most of exon 2 of the MMP-9 gene in the 129/SvEv genetic background (Jackson), as described previously. [Vu, 1998 #2370] […] Mononuclear cells from peripheral blood and total BM cells were isolated one week after MI and were examined by FACS analysis as described above.

[15] = system: bone-marrow derived endothelial cells (double-positive cells); conditions: one week after AMI
From the text: as §5
Apex-sections from the Tie-2/LZ/BMT mice were embedded in OCT compound (Miles Scientific) and snap-frozen in liquid nitrogen for fluorescence microscopy immediately after sacrifice.
Sections of ischemic (FIGS. 12A-12F) and intact (FIGS. 13A-13F) myocardium were stained for both BS lectin 1 (green fluorescence) and β-galactosidase (red fluorescence). […] Such methods can be used for study of the compositions and methods of the instant invention.

[16] = 1 week after MI, 125 μg s.c. single injection
[17] = 2 weeks after MI, 125 μg s.c. single injection
[18] = 2 weeks after MI, 125 μg s.c. single injection, listed as AMD
[19] = 2 weeks after MI, listed as AMD
[20] = 4 weeks after MI, 125 μg s.c. single injection
[21] = 4 weeks after MI, 125 μg s.c. single injection, listed as AMD
[22] = 4 weeks after MI, listed as AMD

c1cc(CN2CCCNCCNCCCNCC2)ccc1CN1CCCNCCNCCCNCC1 [AMD-3100, 1,1′-[1,4-phenylene-bis(methylene)]-bis-1,4,8,11-tetraazacyclotetradecane]
fibrosis area of left ventricle [1]: 25±6% | capillary density in the border zone [2]: 4005±189 /mm^2 | circulating EPC counts relative to baseline [3]: five | maximal MNCs and EPCs (acLDL uptake and BS-1 lectin double-positive cells) ([4]; 1 hour after single s.c. injection of 125 μg, n=5 experiments): 613±89 cells/mm^2 | time for number of EPCs/MNCs to return to baseline after injection ([4]; single s.c. injection of 125 μg): ≤ 24 h | capillary density in the border zone between scar and normal tissue, increase vs. control [5]: +52% | number of X-gal positive cells in infarct and border area ([6]; 1 week after AMI): 3776±113 /mm^2 | number of X-gal positive cells in infarct and border area ([6]; 2 weeks after AMI): 1906±138 /mm^2 | FS (fractional shortening) [7, 16]: 35 ± 2% | LVDd (left ventricular diastolic dimension) [7, 16]: 3.5 ± 0.1 mm | LVDs (left ventricular systolic dimension) [7, 16]: 2.2 ± 0.1 mm | FS (fractional shortening) [7, 17]: 34±1% | LVDd (left ventricular diastolic dimension) [7, 17]: 3.8±0.1 mm | LVDs (left ventricular systolic dimension) [7, 17]: 2.5±0.1 mm | FS (fractional shortening) [7, 18]: 34±1% | LVDd (left ventricular diastolic dimension) [7, 18]: 3.8 ± 0.1 mm | LVDs (left ventricular systolic dimension) [7, 18]: 2.5 ± 0.1 mm | LVDd (left ventricular diastolic dimension) ([7]; 2 weeks after MI, 125 μg s.c. single injection, listed as AMD3100): 3.8±0.1 mm | LV + dP/dt ([7]; 2 weeks after MI): 3383±104 mm Hg/s | LV − dP/dt ([7]; 2 weeks after MI): 2213±113 mm Hg/s | LVEDP (left ventricular end-diastolic pressure) ([7]; 2 weeks after MI): 1.6±0.4 mmHg | LVSP (left ventricular systolic pressure) ([7]; 2 weeks after MI): 71±2 mmHg | LV − dP/dt [7, 19]: 2842 ± 200 mm Hg/s | LVEDP (left ventricular end-diastolic pressure) [7, 19]: 1.5±0.2 mmHg | LVSP (left ventricular systolic pressure) [7, 19]: 73 ± 3 mmHg | LVDs ([7]; 3 wks post-MI (as printed in text)): 2.5±0.2 mm | LVDd (left ventricular diastolic dimension) [7, 20]: 4.0±0.1 mm | LVDs (left ventricular systolic dimension) [7, 20]: 2.6±0.2 mm | FS (fractional shortening) [7, 21]: 28±1% | LVDd (left ventricular diastolic dimension) [7, 21]: 4.0 ± 0.1 mm | LVDs (left ventricular systolic dimension) [7, 21]: 2.9 ± 0.1 mm | LV − dP/dt ([7]; 4 weeks after MI): 2213 ± 112 mm Hg/s | LV + dP/dt [7, 22]: 3383±104 mm Hg/s | LVEDP (left ventricular end-diastolic pressure) [7, 22]: 1.6±0.4 mmHg | LVSP (left ventricular systolic pressure) [7, 22]: 71±2 mmHg | FS (fractional shortening) ([7]; Before MI (baseline)): 52 ± 1% | LVDd (left ventricular diastolic dimension) ([7]; Before MI (baseline)): 2.8 ± 0.1 mm | LVDs (left ventricular systolic dimension) ([7]; Before MI (baseline)): 1.4 ± 0.1 mm | difference in left ventricular systolic pressure (LVSP) between the groups ([7]; two weeks after MI): no significant difference | mice still living (survival rate) ([8]; 14 weeks after AMI, FIG. 4A): 64% | mice died ([8]; another group of mice, four weeks after MI, FIG. 4B): 42% | survival rate versus mice receiving saline ([8]; four weeks after MI, P<0.05): higher | number of cultured EPCs ([9]; four weeks after AMI): returned to basline | number of EPCs in the peripheral blood (cultured, acLDL-DiI/BS-1 lectin double positive) ([9]; one week after AMI): 868±210 /mm^2 | number of EPCs in the peripheral blood (cultured, acLDL-DiI/BS-1 lectin double positive) ([9]; two weeks after AMI): 556±47 /mm^2 | MMP-9 mRNA expression in BM-mononuclear cells [10]: enhanced expression | MMP-2 mRNA expression in BM-mononuclear cells [11]: but not MMP-2 | EPCs (Sca-1/Flk-1 positive) in peripheral blood mononuclear cells by FACS [12]: 11.3±1.4% | EPCs (Sca-1/Flk-1 positive) in BM mononuclear cells by FACS [13]: 1.9±0.1% | difference in Sca-1/Flk-1 positive BM cells versus saline [14]: no significant difference | double-positive cells (BS lectin 1 and β-galactosidase) ([15]; a representative section): eight | double-positive cells (BS lectin 1 and β-galactosidase) ([15]; another representative section): eight
